Measured values: patent US10322098B2, “Composition for use in the treatment of intervertebral disc-related pain” (STAYBLE THERAPEUTICS AB, priority 2014, dated 2019)

Experiments:
[1] = system: disc space of the L3-4 intervertebral disc; experiment: Dimension of the disc space after local injection into the nucleus pulposus in a pig; type: in vivo; conditions: injected L3-4 disc compared with non-injected L2-3 and L4-5; FIG. 7
Protocol: 110. performing a cross-section of the discs and measuring the length (anterio-posterior direction) and the width (bilateral direction) of the disc space. Two pigs were anesthetized and placed on their right side. Access to the L4-5 intervertebral disc was obtained through a lateral incision between the lowest rib and the iliac crest on the left side of each pig. Thereafter, the L3-4 intervertebral disc was incised with a scalpel. […] The composition was injected in a single step at a single occasion. The intervertebral discs (L2-3, L3-4, L4-5) were cross-sectioned and the length of the disc space (anterio-posterior direction) and the width (bilateral direction) of the disc space were measured by calipers. In FIGS. 5 and 6, an intervertebral disc is schematically shown in cross-section. The intervertebral disc comprises the annulus fibrosus 10, and a disc space defined by the annulus fibrosus and comprising the nucleus pulposus 11.

[2] = Tolerability of intradiscal injection in pigs (behaviour, injection site by the naked eye); type: in vivo, pig; conditions: two pigs
Protocol: Two pigs were anesthetized and placed on their right side. Access to the L4-5 intervertebral disc was obtained through a lateral incision between the lowest rib and the iliac crest on the left side of each pig. Thereafter, the L3-4 intervertebral disc was incised with a scalpel.
The composition was injected in a single step at a single occasion.
At harvest, the pigs were killed.
The injection site was observed by the naked eye. […] The segment of the vertebral column extending from the lumbar vertebra L2 to the sacral vertebra S1 was removed. The facet joints were removed, thus allowing full flexibility of the discs with no restraints from other structures.

CC(O)C(=O)O (stereo not drawn) [lactic acid]
Observation of the cross-sectioned disc space by the naked eye [1]: newly formed connective tissue in the disc space | Adverse reaction such as decreased mobility or vocalization ([2]; 0.2 mL of 1.34 mol/L into L3-4 nucleus pulposus, period of seven days until harvest): no adverse reaction | Adverse reaction at the injection site, such as bleedings, inflammation or necrosis ([2]; observed by the naked eye at harvest, seven days): No adverse reaction
